From patent US11497813B2, “Bortezomib conjugates and methods using same” (Frank EBETINO et al., priority 2015, dated 2022)

System: UPS activation
Assay: Ub^G76V-GFP reporter cells (GFP+ cells) in osteoclast cultures and on pre-incubated bone slices
Assay type: cell-based, mouse
Conditions: BM cells from Ub^G76V-GFP mice on bone slices pre-incubated with compound
Method: FIG. 5A is a scheme of an exemplary synthesis of compound BP-Btz1. FIG. 5B is a series of images of bone slices pre-incubated with 1 μM BP-Btz1, Btz, or bisphosphonate (BP) overnight. Drug solutions were removed and bone slices were washed with PBS extensively. […] (BM) cells from UB^G76V-GFP mice were cultured on bone slices in the presence of M-CSF and RANKL for 9 days. Top images (a): GFP^+ cells were observed under a fluorescence microscope and GFP signal intensity was quantified. Middle images (b): bone slices were fixed and subjected to TRAP staining for osteoclasts (OCs). OC #/slice were counted. Bottom images (c): cells were removed from slices. Toluidine blue staining was performed and pit areas/slice were counted. FIG. 5C is a series of images of murine BM cells cultured and stained for ALP. FIG. 5D is a series of images of human MSCs cultured and stained for ALP. Murine BM cells and human MSCs were cultured in the OB-inducing medium plus different concentrations of BP-Btz1 or Btz for 4 or 6 days, respectively. Cells were stained for ALP. The ALP^+ areas were measured by Image J. *P<0.05 vs. Btz-treated cells.
1. Ub^G76V-GFP mice in B6 background (Stock #008111, Jax lab) are generated using previously described methods (Lindsten et al., 2003, Nat. Biotech. 21:897-902). The Ub^G76V-GFP transgene was designed with a chicken beta-actin promoter and CMV immediate early enhancer upstream of a GFP fused to a mutant ubiquitin moiety (Ub^G76V), a constitutively active proteasome degradation signal. Following proteasome inhibitor administration, Ub^G76V accumulates and GFP fluorescence is readily apparent. GFP^+ OCs were detected at 4 and 8 hrs after adding Btz to OC cultures, which disappeared at 24 hrs. […] 2. OC formation and resorption assays and data analyses are performed as described herein (FIG. 4) and using previously described methods (Zhang et al., 2014, J. Clin. Invest. 124:3200-3214; Xiu et al., 2014, J. Clin. Invest. 124:297-310). […] The number and area of OCs and resorption pits are assessed. The appearance, intensity and distribution of GFP^+ cells on bone slices and plastic surrounding bone slices during OC formation is observed and recorded. 3. OB differentiation. Third passages of BM stromal cells are used as MPCs, as previously described (Shu et al., 2013, J. Bone Min. Res. 28:1925-1935; Zhang et al., 2014, J. Clin. Invest. 124:3200-3214). MPCs are cultured on plastic plates in OB-inducing medium±BP-Btz conjugates, Btz or BP (0.1-100 nM) for 1-3 wks. Plates are subjected to alkaline phosphatase (ALP) and alizarin red staining, and qPCR analyses. Area of ALP^+ and mineralized bone nodule, and the expression levels of OB marker genes (ALP, osteocalcin, Runx2) are measured. GFP^+ cells during OB differentiation are observed as in OCs. In a parallel experiment, human MSCs (from Lonza) are treated with BP-Btz, Btz, or BP in OB-inducing medium and their effects examined on OB differentiation as show in FIGS. 5C and 5D. 4. Western blot/Ub assays. OCPs or MPCs are treated with a preferred dose of leading BP-Btz, Btz and BP. OCP lysates are subjected to Western blot using α-NF-κB members and TRAF6 Abs. OB lysates are subjected to Western blot with α-ubiquitin, Runx2, or JunB Abs, and Ub assays using UbiQapture matrix (Biomol) to pull down Ub-proteins followed by α-Runx2 and JunB Abs using previously described methods (Zhao et al., 2010, J. Bone Min. Res. 25:1246-1256; Zhao et al., 2011, Stem cells 29:1601-1610).

Structure (SMILES): NCC(P(=O)(O)O)P(=O)(O)O [BP]
- GFP+ cells on pre-incubated bone slices: not
